{"source": "patent US20210113540A1", "about": "“TREATMENT AGENT AND PHARMACEUTICAL COMPOSITION FOR GLIOMA” (NATIONAL UNIVERSITY CORPORATION HOKKAIDO UNIVERSITY, priority 2018, published 2021)", "key": {"[1]": {"test_system": "Glioma-initiating cell E6R", "test": "Cell growth test (MTT) on GICR strain E6R", "assay_type": "cell-based", "details": "Homo sapiens, 72 h", "protocol": "GICR strain: Cell growth test was performed using E6R (Stem Cells. 2016 August; 34(8):2016-25.).\n(§1) Cell culture solutions were obtained by mixing a medium prepared by adding various compounds, bFGF (Peprotech, 100-18B) and EGF (Peprotech, 100-15) to DMEM/Ham's F-12 medium (SIGMA, D8062) and a medium prepared by adding FCS (Hyclone, SH30910.03) to DMEM medium (Nacalai tesque, 08458-45) to a concentration of 10% for use.\n(§2) Each compound adjusted to a predetermined concentration was dispensed into a 96-well plate (Falcon, 353072) at 80 μL/well, and E6 cells and E6R cells were seeded on the 96-well plate at 1000 cells/80 μL/well. After 3 days, 10 μL of an MTT reagent (DOJINDO, 341-01823) was added, the cells were incubated at 37° C. for 3 hours, the culture solution was removed, and 100 μL of DMSO was added. The absorbance at 570 nm was measured using Bio-Rad iMark (Bio-Rad, 168-1130JA). The growth inhibition rate at each test compound concentration was calculated by the following formula using the absorbance as an index of the viable cell count.\n(§3) The growth inhibition rate at each compound concentration was determined, and the 50% growth inhibition concentration GI50 (μmol/L)] was calculated using XLfit. Growth inhibition rate (%)=(Amount of luminescence from wells supplemented with test compound)/(Amount of luminescence from wells supplemented with DMSO)×100\n(§4) GIC and GICR strain: Cell growth test was performed using E6, E6R, E16, and E16R (Stem Cells. 2016 August; 34(8): 2016-25.)."}, "[2]": {"test_system": "Glioma-initiating cell E6", "test": "Cell proliferation test (MTT) on GIC strain E6", "assay_type": "cell-based", "details": "Homo sapiens, 72 h, MTT after 3 days", "protocol": "as §4, §1, §2, §3"}, "SOX2 in GICs (E6)": {"test_system": "SOX2 in GICs (E6)", "test": "SOX2 immunostaining, SOX2/DAPI positive rate in GICs (E6)", "assay_type": "cell-based, human", "protocol": "(§5) The extranuclear elimination of compound 8-dependent SOX2 is dependent on the extranuclear transport factor, Exportin (also known as CRM1). The cells were cultured for one day in the presence of Compound 8 (10 μM) and a CRM1-specific inhibitor leptomycin B (LMB, 150 nM), and GICs were immunostained with the SOX2 antibody. As a result, the SOX2/DAPI positive rate in GICs (E6) was as follows: Control: 95±2%, supplemented with Compound 8: 7±3%, supplemented with Compound 8+LMB: 87±9%; the SOX2/DAPI positive rate in GICs (E16) was as follows: Control: 72±11%, supplemented with compound 8: 0.5±1%, supplemented with Compound 8+LMB: 81±10%. The addition of LMB suppressed Compound 8-dependent extranuclear elimination of SOX2.\n(§6) When UDP-GlcNAc was added after the chemical was added to GIC, reduced SOX2 expression in GICs and the cytotoxic activity of Compound 8 on GICs were neutralized (FIGS. 3 and 4). SOX2 K75A in which lysine 75 involved in the binding of CRM1 and SOX2 was substituted with alanine and SOX2 S248A in which the 0-GlcNAcylation target serine 248 was substituted with alanine were prepared, thereby establishing GICs that constitutively express these SOX2 mutants and wild-type SOX2 (SOX2 wt). After treatment with Compound 8, the localization of SOX2 was examined by immunostaining using an anti-FLAG antibody, and the viability of GICs expressing these mutants was examined by MTT assay (FIG. 5). In the presence of Compound 8, SOX2 K75A was present in the nucleus and partially neutralized the cytotoxic activity of Compound 8. SOX2 S248A was not retained in the nucleus by treatment with Compound 8, and no inhibitory effect on cytotoxic activity was observed. […] The SOX2/DAPI positive rate was as follows: GIC (E6): Control: 0%, SOX2 wt: 36±5%, SOX2 K75A: 63±5%, SOX2 S248A: 18±2%; GIC (E16): Control: 0%, SOX2 wt: 22±4%, SOX2 K75A: 58±6%, SOX2 S248A: 15±3%. Error bar: ±SD. Statistical processing is t-test. *P<0.05, **P<0.01, ***P<0.001. GIC was cultured for 2 days with Compound 8 (10 μmol/L) alone or together with UDP-GlcNAc (1 mmol/L), and immunostaining was performed for SOX2 and NESTIN. As a result, the addition of UDP-GlcNAc suppressed Compound 8-dependent extranuclear elimination of SOX2.\n(§7) OSMI-1, which is an O-GlcNAc transferase (OGT)-specific inhibitor, suppresses GIC growth and SOX2 expression. (A) GICs were cultured for 3 days in the presence of various concentrations of OSMI-1, and cell growth was examined using MTT assay (FIG. 6). (B) The results of immunostaining for SOX2 and NESTIN using GICs cultured for 2 days in the presence of 20 μmol/L OSMI-1 and calculating the SOX2 positive rate (SOX2/DAPI) are shown below."}, "SOX2 in GICs (E16)": {"test_system": "SOX2 in GICs (E16)", "test": "SOX2 immunostaining, SOX2/DAPI positive rate in GICs (E16)", "assay_type": "cell-based, human", "protocol": "as §5, §6, §7"}, "[3]": {"test_system": "Temozolomide-resistant E6 (E6R)", "test": "Xenograft model, subcutaneous E6R in NOD/SCID mice", "assay_type": "in vivo", "protocol": "Temozolomide-resistant E6 (E6R, 1×10^6) was subcutaneously transplanted into NOD/SCID mice (n=6), and Compound 8 (1.0 mg/kg) was orally administered for 11 consecutive days after the long diameter and short diameter of tumor became 5 to 6 mm. […] The size of tumor was calculated as (long diameter)×(short diameter)^2/2. Tumors were excised from Compound 8 treated mice and control mice on Day 12 from the start of oral administration of Compound 8 and fixed with 4% paraformaldehyde, followed by preparation of frozen sections. As a result, tumor cell aggregates disappeared by treatment with Compound 8."}, "E16 cells": {"test_system": "E16 cells", "test": "Quantitative determination of metabolites by LC-MS/MS in E16 cells", "assay_type": "cell-based, human", "design": "dose or concentration left out as unconfirmed", "details": "24 hours", "protocol": "Compound 8 was added to GICs (E6, E16) at […] and treated for 24 hours. Cells were washed with a 5% mannitol solution, 70% ice-cold methanol was added, and metabolites were extracted. […] In addition, the amount of orotic acid was decreased in E16 cells."}, "[4]": {"details": "after treatment with Compound 8, anti-FLAG immunostaining"}, "[5]": {"details": "1.0 mg/kg orally, tumors excised on Day 12"}}, "note": "Like-named read-outs stand apart in the source and are kept apart here.", "data": [{"compound": "O=C(O)c1cc(C2CC2)cnc1Nc1ccc2c(ccn2-c2ccccc2)c1", "note": "[Compound 8, 5-cyclopropyl-2-((1-phenyl-1H-indole-5-yl)amino)nicotinic acid]", "values": [{"measurement": "GI50", "setting": "[1]; MTT after 3 days, read-out: ER6 GI50", "result": 11.8, "unit": "nM"}, {"measurement": "GI50", "setting": "[1]; class of ER6 GI50, MTT after 3 days, read-out: Evaluation", "result": "< 1000", "unit": "nM"}, {"measurement": "GI50", "setting": "[2]; read-out: GI50 (nmol/L) of Glioma-initiating cell E6", "result": "< 7", "unit": "nmol/L"}, {"measurement": "GI50", "setting": "[2]; read-out: GI50 class of Glioma-initiating cell E6", "result": "< 1000", "unit": "nmol/L"}, {"measurement": "SOX2/DAPI positive rate in GICs (E6)", "setting": "SOX2 in GICs (E6); Compound 8 10 μM, LMB 150 nM where added, cultured one day, control 95±2%", "result": "7±3", "unit": "%"}, {"measurement": "SOX2/DAPI positive rate, GIC (E6) expressing SOX2 K75A", "setting": "SOX2 in GICs (E6); [4]", "result": "63±5", "unit": "%"}, {"measurement": "SOX2/DAPI positive rate, GIC (E6) expressing SOX2 S248A", "setting": "SOX2 in GICs (E6); [4]", "result": "18±2", "unit": "%"}, {"measurement": "SOX2/DAPI positive rate, GIC (E6) expressing SOX2 wt", "setting": "SOX2 in GICs (E6); [4]", "result": "36±5", "unit": "%"}, {"measurement": "SOX2/DAPI positive rate in GICs (E16)", "setting": "SOX2 in GICs (E16); Compound 8 10 μM, LMB 150 nM where added, cultured one day, control 72±11%", "result": "0.5±1", "unit": "%"}, {"measurement": "SOX2/DAPI positive rate, GIC (E16) expressing SOX2 K75A", "setting": "SOX2 in GICs (E16); [4]", "result": "58±6", "unit": "%"}, {"measurement": "SOX2/DAPI positive rate, GIC (E16) expressing SOX2 S248A", "setting": "SOX2 in GICs (E16); [4]", "result": "15±3", "unit": "%"}, {"measurement": "SOX2/DAPI positive rate, GIC (E16) expressing SOX2 wt", "setting": "SOX2 in GICs (E16); [4]", "result": "22±4", "unit": "%"}, {"measurement": "tumor growth (size of tumor)", "setting": "[3]; 1.0 mg/kg orally for 11 consecutive days, FIG. 2", "result": "reduced tumor growth"}, {"measurement": "SOX2 in the mouse tumor tissue", "setting": "[3]; [5]", "result": "disappearance of SOX2"}, {"measurement": "tumor cell aggregates in excised tumor sections", "setting": "[3]; [5]", "result": "disappeared"}, {"measurement": "amount of orotic acid in E16 cells", "setting": "E16 cells", "result": "decreased"}, {"measurement": "increase of the amount of DHO in E16 cells", "setting": "E16 cells; compared to control DMSO-treated group", "result": 125, "unit": "fold"}]}]}
